Among the data in ChEMBL document CHEMBL5604062, “ASAP - ZIKV NS2B-NS3 protease fluorescence dose response” (2024) are IC50 values, retold here.

Each structure is given as a SMILES string.

In the assay the target is Nonstructural protein 3 (Zika virus, UniProt A0A024AXB9). The assay is described as follows: Functional biochemical assay to identify treatments for viral infectious disease that targets Zika NS2B-NS3 protease. Utilizing a direct enzyme activity measurement method, reading the fluorescence intensity is used to characterize the relative potency of inhibitors as IC50. Set-up: species or system PRVABC59.
Nonstructural protein 3, sequence (A0A024AXB9 whole entry): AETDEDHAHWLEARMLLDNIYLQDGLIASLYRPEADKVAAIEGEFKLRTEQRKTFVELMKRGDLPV
Usually IC50 stands for the concentration that inhibits the measured activity by half. High values mean weaker potency, low ones greater potency. `CCn1c(=O)c(N2CC[C@H](CO)C2)nc2ccc(C(N)=O)cc21` displayed an IC50 of more than 99.5 µM.

Take `N[C@H]1Cc2ccc(NC(=O)c3cc(Cl)cc(NC(=O)OCc4ccccc4)c3)cc2C1`: half-maximal inhibition (IC50) required 2.49 µM.

In turn, `O=C(Nc1cc(Cl)cc(C(=O)Nc2ccc3c(c2)C[C@H](F)C3)c1)OCc1ccccc1` yielded an IC50 of more than 99.5 µM.

For `Cc1nc(-c2ccc(Cl)cc2)sc1C(=O)Nc1cccc(CN)c1`, the IC50 was determined as 91.1 µM. This lies in the double-digit micromolar range.

`Cc1c(C(=O)Nc2cccc([C@H]3CCNC3)c2)cc(C2CC2)n1C`: the half-inhibitory concentration (IC50) was more than 99.5 µM.

In turn, `Cc1c(C(=O)Nc2cccc(CCN)c2)cc(C2CC2)n1C` had an IC50 of 88.3 µM.

The compound `O=C(Nc1cc(Cl)cc(C(=O)Nc2cccc(-c3cn[nH]n3)c2)c1)OCc1ccccc1` yielded an IC50 of more than 99.5 µM.

On to `Cc1ccc(NC(=O)c2cc(C3CC3)n(C)c2C)cc1CN`, for which the IC50 was more than 99.5 µM.

`Cc1nn(CCO)c(C(F)F)c1C(=O)Nc1cccc(CN)c1` came in with a half-inhibitory concentration (IC50) of more than 99.5 µM.

Turning to `CCc1nc(C(=O)Nc2cccc(CN)c2)nn1-c1c(Cl)cccc1Cl`, the IC50 is more than 99.5 µM.

`CSc1cc(Cl)cc(C(=O)Nc2cccc(-n3nn[nH]c3=O)c2)c1` registered an IC50 of more than 99.5 µM.

For the compound `CC(C)c1occ(C(F)(F)F)c1C(=O)Nc1cccc(CN)c1`, the IC50 was more than 99.5 µM.

In the case of `O=C(Nc1cc(Cl)cc(C(=O)Nc2ccc(-n3nn[nH]c3=O)cc2)c1)OCc1ccccc1`, the IC50 amounted to 30.9 µM.

Compound `Cc1cc(CN)cc(NC(=O)c2cc(C3CC3)n(C)c2C)c1` showed an IC50 of more than 99.5 µM.

On to `O=C(Nc1cc(Cl)cc(C(=O)Nc2ccc([C@H]3CNCCO3)cc2)c1)OCc1ccccc1`, for which the IC50 is more than 99.5 µM.

As for `Cn1nc(C(=O)Nc2cccc(CN)c2)cc1C1CC1`, the IC50 was more than 99.5 µM.

For the compound `NC[C@H]1C[C@H]1NC(=O)c1cc(Cl)cc(NC(=O)OCc2ccccc2)c1`, the IC50 was more than 99.5 µM.

Compound `CCc1onc(C2CCOCC2)c1C(=O)Nc1cccc(CN)c1` had an IC50 of more than 99.5 µM.

As for `Cn1cc(C(=O)Nc2cccc(CN)c2)c(-c2cnccn2)n1`, the IC50 was more than 99.5 µM.

For `N[C@H]1CCN(c2ccc(NC(=O)c3cc(Cl)cc(NC(=O)OCc4ccccc4)c3)cc2)C1`, the midpoint of inhibition, the IC50, lay at 7.72 µM.

In turn, `CNC(=O)[C@H](Nc1cccc(CN)c1)c1cc(Cl)cc(NC(=O)OCc2ccccc2)c1` returned an IC50 of 0.612 µM.

The compound `O=C(Nc1cc(Cl)cc(C(=O)Nc2ccc([C@H]3CCCNC3)cc2)c1)OCc1ccccc1` gave an IC50 of 7.51 µM.

`NC[C@H]1C[C@@H]1NC(=O)c1cc(Cl)cc(NC(=O)OCc2ccccc2)c1` registered a concentration for half-maximal inhibition (IC50) of 21.5 µM.

Take `NC1CCN(c2ccc(NC(=O)c3cc(Cl)cc(NC(=O)OCc4ccccc4)c3)cc2)CC1`: the midpoint of inhibition, the IC50, lay at 7.28 µM.

Take `NCc1cccc(NC(=O)[C@H]2CCCN(C(=O)CC3CC3)C2)c1`: the IC50 is more than 99.5 µM.

On to `NCc1cccc(NC(=O)c2nc(C3CC3)n(-c3ccccc3Cl)n2)c1`, for which the IC50 is more than 99.5 µM.

Compound `O=C(Nc1cc(Cl)cc(C(=O)Nc2ccc([C@H]3CCNC3)cc2)c1)OCc1ccccc1` registered an IC50 of 5.43 µM.

On to `Cc1cc(C(=O)Nc2cccc(CN)c2)c(NC(=O)[C@H]2CCCO2)s1`, for which the midpoint of inhibition, the IC50, lay at 5.86 µM.

`NCc1cccc(NC(=O)c2cc(Br)cc(-n3cnnn3)c2)c1` registered a half-maximal inhibitory concentration (IC50) of 7.07 µM.

Turning to `COc1cc(C(=O)Nc2cccc(CN)c2)cc2cn(C)nc12`, the IC50 is more than 99.5 µM.

As to `O=C(Nc1cc(Cl)cc(C(=O)Nc2ccc3c(c2)CCNC3)c1)OCc1ccccc1`, the IC50 stood at 1.48 µM. This lies in the single-digit micromolar range.

Compound `Cc1oc(C(=O)Nc2cccc(CN)c2)cc1COc1ccccc1` returned a 50% inhibitory concentration (IC50) of more than 99.5 µM.

Compound `CN(C)[C@H](C(=O)Nc1cccc(CN)c1)c1cc(Cl)cc(Cl)c1` showed an IC50 of more than 99.5 µM.

The compound `Cn1nc(C(=O)Nc2cccc(CN)c2)c2c1CCS(=O)(=O)C2` gave an IC50 of more than 99.5 µM.

`CC[C@H](Cc1nnn[nH]1)c1ccc(NC(=O)c2cc(Cl)cc(C3CC3)c2)cc1` displayed an IC50 of more than 99.5 µM.

For the compound `Cc1c(C(=O)Nc2cccc(C3CCNCC3)c2)cc(C2CC2)n1C`, the half-inhibitory concentration (IC50) is more than 99.5 µM.

As to `Cc1c(C(=O)Nc2ccc(CCN)cc2)cc(C2CC2)n1C`, the IC50 was found to be 92.6 µM. That is a double-digit micromolar value.

Compound `O=C(O)Cc1cccc(NC(=O)c2cc(Cl)cc(NC(=O)OCc3ccccc3)c2)c1` displayed an IC50 of more than 99.5 µM.
